Measured values published in US4866161A, “Inhibition of tartar deposition by polyanionic/hydrophobic peptides and derivatives thereof which have a clustered block copolymer structure” (University of South Alabama, priority 1987, dated 1989).
Read-outs that look alike come from different tables or passages of the source. Ends that are not written are not given here.

Legend:
[1] = pH-drift assay, calcium carbonate
Protocol: A solution supersaturated with respect to CaCO03 is prepared by separately pipetting 0.3 ml of 1.0 M CaCl2 dihydrate and 0.6 ml of 0.5 M NaHCO3 into 29.1 ml of artificial seawater (0.5 NaCl, 0.011 M KCl). The reaction vessel is a 50 ml, 3-necked, round-bottom flask partially immersed in a thermostated water bath at 20° C. The reaction vessel is closed to the atmosphere to minimize exchange of CO2 The reaction is started by adjusting the pH upward to 8.3 by titration of μl amounts of 1 N NaOH by digital pipette. The initial concentrations are 10 mM each of Ca^2+ and dissolved inorganic carbon (DIC). The reaction is monitored by pH electrode and recorded by strip chart.
The reaction may be quantified by calculations based on DIC equilibria to give the amount of precipitation versus time.
The conditions of the assay were […] dissolved inorganic carbon at 20° C. and 30 ml of artificial seawater (0.5 M NaCl, 0.01 M KCl).

[2] = constant composition assay, CaCO3; settings: FIG. 5, pH 8.30 held constant, 20° C., doses matched for about 2 hours stabilization
Protocol: A 50 ml solution of 10 mM CaCl2 and 10 mM dissolved inorganic carbon (DIC) was adjusted to pH 8.34 by digital pipetting of μl amounts of 1 N NaOH. The temperature was held constant at 20° C. using a water-jacketed reaction vessel and a thermostated bath. After about a 6 minute period during which CaCO3 nucleation occurs, the pH beings to drift downward as Ca^2+ and CO3^2- ions are removed from solution as solid crystals. At pH 8.30, inhibitors were added which stabilized the pH drift for certain periods of time. The concentrations of inhibitors used in the experiments shown in FIG. 5 were matched so that the amount of stabilization or inhibition of nucleation was the same, in this case about 2 hours. The doses required for this effect ranged between 0.1 to 0.5 μg/ml of inhibitor depending on the type When crystallization began again, the pH would drift downward. However, it was held constant at pH 8.30±0.02 by automatic titration of 0.5 M CaCl2 and 0.5 M NaCO3 from separate burettes linked via the pH electrode to a computer-assisted titrimeter.

[3] = inhibitor 37 μg/ml; adapted from Hay et al. 1979; cited from earlier work
[4] = pH-drift assay, calcium phosphate
Protocol: A solution supersaturated with respect to calcium phosphate is prepared by separately pipetting 0.1 ml of 1.32 M CaCl2 dihydrate and 0.1 ml of 0.90 M NaHl PO4 into 29.8 ml of distilled water. This yields initial concentrations of 4.4 mM Ca^2+ and 3.0 mM dissolved inorganic phosphorus (DIP). The reaction vessel is a 50 ml, round-bottom, 3-necked flask partially immersed in a thermostated water bath at 20° C. The reaction vessel is closed to the atmosphere. The reaction begins upon mixing the reactants with an initial pH of 7.4.
Amorphous calcium phosphate (ACP) nucleates immediately and slowly grows as indicated by a slight decrease in pH during the first 30 minutes or so of the assay. Following this, ACP begins to transform to calcium hydroxylapatite (HAP), Ca10 (PO4)6 (OH)2, as indicated by a marked acceleration in the downward pH drift. The reaction ceases as reactants are depleted and the pH is lowered.
^1 Assay Conditions: Ca at 4.4 mM, dissolved inorganic phosphorus at […]

Compound: H--(ALA)10 (ASP)15 --OH
- CRYSTAL GROWTH RATE ([1]; peptide 0.050 μg/ml): 0.042 ± 0.0039 pH/MIN
- INDUCTION PERIOD ([1]; peptide 0.050 μg/ml): 32.0 ± 10.4 min

Compound: Polyaspartate [matrix analog]
- rate of crystallization after the period of stabilization [2]: not observed

Compound: DDDDDDDDDDDDDDDDDDDD [H--(ASP)20--OH, poly (Asp)20]
- CRYSTAL GROWTH RATE ([1]; peptide 0.02 μg/ml): 0.047 ± 0.0030 pH/MIN
- INDUCTION PERIOD ([1]; peptide 0.02 μg/ml): 21.5 ± 0.50 min
- CRYSTAL GROWTH RATE ([1]; peptide 0.035 μg/ml): 0.041 ± 0.0050 pH/MIN
- INDUCTION PERIOD ([1]; peptide 0.035 μg/ml): 39.2 ± 10.8 min
- INDUCTION PERIOD ([1]; peptide 0.050 μg/ml): > 180 min

Compound: AAAAAAGDGDGDGDGDGDGD [H--(ALA)6 --(GLY-13 ASP)7 --OH, poly (Asp-Gly)7 (Ala)6]
- inhibition of crystal nucleation (duration of induction period), in words ([1]; FIG. 6, equal doses, artificial seawater, 20° C.): very little activity relative to the control curve
- CRYSTAL GROWTH RATE ([1]; peptide 0.20 μg/ml): 0.048 ± 0.0042 pH/MIN
- INDUCTION PERIOD ([1]; peptide 0.20 μg/ml): 7.2 ± 0.83 min

Compound: GDGDGDGDGDGDGDGDGDGD [H--(GLY--ASP)10 --OH]
- CRYSTAL GROWTH RATE ([1]; peptide 0.1 μg/ml): 0.047 ± 0.0097 pH/MIN
- INDUCTION PERIOD ([1]; peptide 0.1 μg/ml): 36.0 ± 5.20 min

Compound: Statherin: salivary protein, most effective inhibitor among salivary proteins that regulate mineral deposition in the oral cavity (DSSEEKFLRRIGRFGYGYGPYQPVPEQPLYPQPYQPQYQQYTF; UniProt P02808 20-62, looked up)
- PERIOD OF ACP FORMATION [3]: 48 min
- pH/min, ACP FORMATION [3]: 0.0045 pH/min
- pH/min, APATITE FORMATION [3]: 0.0090 pH/min

Compound: SDSDSDSDSDSDSDSDSDSD [H--(SER--ASP)10 --OH]
- CRYSTAL GROWTH RATE ([1]; peptide 0.1 μg/ml): 0.048 ± 0.0040 pH/MIN
- INDUCTION PERIOD ([1]; peptide 0.1 μg/ml): 29.8 ± 4.99 min

Compound: GSDGSDGSDGSDGSDGSDGSD [H--(GLY--SER--ASP)7 --OH]
- CRYSTAL GROWTH RATE ([1]; peptide 0.1 μg/ml): 0.057 ± 0.0034 pH/MIN
- INDUCTION PERIOD ([1]; peptide 0.1 μg/ml): 5.83 ± 1.04 min

Compound: O=P(O)(O)CN(CCN(CP(=O)(O)O)CP(=O)(O)O)CCN(CP(=O)(O)O)CP(=O)(O)O [DENTPP, diethylene triamine pentamethylene phosphonic acid]
- PERIOD OF ACP FORMATION ([4]; inhibitor 5 μg/ml): 100 min
- pH/min, ACP FORMATION ([4]; inhibitor 5 μg/ml): 0.0012 pH/min
- pH/min, APATITE FORMATION ([4]; inhibitor 5 μg/ml): 0.019 pH/min

Compound: Polyaspartate [Polyaspartate, MW 15,000]
- pH/min, ACP FORMATION ([4]; inhibitor 10 μg/ml): 0.0040 pH/min
- pH/min, APATITE FORMATION ([4]; inhibitor 10 μg/ml): 0.106 pH/min
- PERIOD OF ACP FORMATION ([4]; inhibitor 10 μg/ml, Ca 4.4 mM, DIP 3.0 mM, initial pH 7.40, 20° C.): 30 min
- PERIOD OF ACP FORMATION ([4]; inhibitor 15 μg/ml): 48 min
- pH/min, ACP FORMATION ([4]; inhibitor 15 μg/ml): 0.0050 pH/min
- pH/min, APATITE FORMATION ([4]; inhibitor 15 μg/ml): 0.070 pH/min

Compound: AAAAAAAAAADDDDDDDDDD [H--(Ala)10 --(Asp)10 --OH]
- inhibitory activity on CaCO3 crystallization, comparison of Table 1 in words ([1]; Table 1): decreased activity
